According to patent US8906684B2, “Three dimensional cell patterned biopolymer scaffolds and methods of making the same” (The Regents of the University of California, priority 2002, dated 2014):

System: HepG2 cells
Type: cell-based
Settings: HepG2, amounts used for photocrosslinking
Procedure: Cell culture and viability assays in the presence of photopolymerizing agents. HepG2 cells (American Type Culture Collection, Manassas, Va.) were cultured in 175 cm^2 flasks (Fisher, Springfield, N.J.) and were passaged preconfluency no more than 13 times. The cells were maintained in minimal essential medium (MEM; Gibco, Grand Island, N.Y.) supplemented with 5% fetal bovine serum, 100 ug/mL penicillin, and 100 ug/mL streptomycin and incubated at 5% CO2 and 37° C. The cells to be incorporated into hydrogels were added to the prepolymer solution containing initiator and were mixed gently prior to UV exposure.
In order to explore the effects of photoinitiator and UV exposure on cell death, individual components were tested in HepG2 cultures. 3.0×10^5 cells were seeded in six-well culture dishes and allowed to proliferate until near confluency. A solution of 300 mg/mL of 2,2-dimethyl-2-phenyl-acetophenone (Aldrich) in 1-vinyl-2-pyrrolidinone (Sigma) was added to MEM in concentrations of 0, 3, 5, and 10 ul/ml. […] Cell viability was measured by an Mi viability assay, which forms a purple precipitate by cleavage of the tetrazolium ring by mitochondrial dehydrogenase enzymes. […] The absorbance was measured at 570 nm with a SpectraMax Plus spectrophotometer (Molecular Devices, Sunnyvale, Calif.). […]

## C=CN1CCCC1=O [1-vinyl-2-pyrrolidinone]
  toxicity to cells of initiator solvent alone: not found to be toxic
